Square brackets hold non-standard residues; d marks the D form. Ends that are not written are not given here. Peptide text beside a SMILES is read from it. NMeY = CN[C@@H](Cc1ccc(O)cc1)C(=O)O; NMeF = CN[C@@H](Cc1ccccc1)C(=O)O; Nle = CCCC[C@H](N)C(=O)O
How the values were obtained:
[1] = test system: cells of rat pituitary glands; test: in vitro GH release assay in cultured rat pituitary cells, side-by-side with hpGRF(1-40)-OH standard; assay type: cell-based; conditions: for Comparison % (GH release relative to hpGRF(1-40)-OH standard): equimolar concentrations, incubation 3 to 4 hours, immunoreactive GH in culture medium by radioimmunoassay, hpGRF(1-40)-OH = 100%
Experimental: To determine the effectiveness of the various synthetic peptides to promote the release of growth hormone, in vitro assays are carried out using synthetic hpGRF(1-40)--OH as a standard in side-by-side comparison with equimolar concentrations of the various other analogs and fragments synthesized. Cultures are used which include cells of rat pituitary glands removed some three to five days previously. Cultures which are considered optimal for the secretion of growth hormone are used for the comparative testing, in the general manner described in Vale et al. Endocrinology , 91, 562-572 (1972) and as more particularly described in Vale et al. Endocrinology, (1983), in press. Incubation with the substance to be tested is carried out for 3 to 4 hours, and aliquots of the culture medium are removed and processed to measure their contents in immunoreactive GH(ir GH) by a well-characterized radioimmunoassay.

[2] = test system: secretion of pituitary GH; test: in vivo GH secretion in freely running normal male rats pretreated with FLA-63; parameters: species or system rat; conditions: injection through indwelling catheter, blood samples prior to and 5 and 20 minutes after injection
Experimental: In addition to the in vitro tests for secretion of growth hormone, in vivo experiments inject the synthetic peptides through an indwelling catheter into freely running normal male rats after pretreating them with FLA-63, a dopamine hydroxylase inhibitor that suppresses spontaneous GH secretion without affecting the response to exogenous GRF. Blood samples are taken through the same catheter immediately prior to and 5 and 20 minutes after injections. […] Dosages between about 100 nanograms and about 50 micrograms per Kg. of body weight are considered to be effective in causing secretion.

Molecule	Comparison % (GH release relative to hpGRF(1-40)-OH standard) [1] [%]	maximum effective concentration ([1]; in vitro, rat pituitary cell cultures) [nM]	duration of GH-releasing action compared with hpGRF(1-32)-NH2 [2]	stimulation of secretion of pituitary GH (GH levels in blood) ([2]; radioimmunoassay)
CC[C@H](C)[C@H](NC(=O)[C@H](C)NC(=O)[C@H](CC(=O)O)NC(=O)[C@H](C)NC(=O)[C@H](Cc1ccccc1)NC)C(=O)N[C@@H](Cc1ccccc1)C(=O)N[C@H](C(=O)N[C@@H](CC(N)=O)C(=O)N[C@@H](CO)C(=O)N[C@@H](Cc1ccc(O)cc1)C(=O)N[C@@H](CCCNC(=N)N)C(=O)N[C@@H](CCCCN)C(=O)N[C@H](C(=O)N[C@@H](CC(C)C)C(=O)NCC(=O)N[C@@H](CCC(N)=O)C(=O)N[C@@H](CC(C)C)C(=O)N[C@@H](CO)C(=O)N[C@@H](C)C(=O)N[C@@H](CCCNC(=N)N)C(=O)N[C@@H](CCCCN)C(=O)N[C@@H](CC(C)C)C(=O)N[C@@H](CC(C)C)C(=O)N[C@@H](CCC(N)=O)C(=O)N[C@@H](CC(=O)O)C(=O)N[C@H](C(=O)N[C@@H](CCSC)C(=O)N[C@@H](CO)C(=O)N[C@@H](CCCNC(=N)N)C(=O)N[C@@H](CCC(N)=O)C(=O)N[C@@H](CCC(N)=O)C(=O)NCC(N)=O)[C@@H](C)CC)C(C)C)[C@@H](C)O [[N^a MePhe^1]-hpGRF(1-32)-NH2] (H-[NMeF]ADAIFTNSYRKVLGQLSARKLLQDIMSRQQG-NH2)	12	5 to 10	substantially longer duration that hpGRF(1-32)-NH2	powerful stimulators of the secretion of pituitary GH
CCCC[C@H](NC(=O)[C@@H](NC(=O)[C@H](CCC(=O)O)NC(=O)[C@H](Cc1c[nH]cn1)NC(=O)[C@H](CC(C)C)NC(=O)[C@H](CC(C)C)NC(=O)[C@H](CCCCN)NC(=O)[C@H](CCCNC(=N)N)NC(=O)[C@H](C)NC(=O)[C@H](Cc1ccc(O)cc1)NC(=O)[C@H](CC(C)C)NC(=O)[C@H](CCC(N)=O)NC(=O)CNC(=O)[C@H](CC(C)C)NC(=O)[C@@H](NC(=O)[C@H](CCCNC(=N)N)NC(=O)[C@H](CCCNC(=N)N)NC(=O)[C@H](Cc1ccc(O)cc1)NC(=O)[C@H](CO)NC(=O)[C@H](CO)NC(=O)[C@@H](NC(=O)[C@H](Cc1ccccc1)NC(=O)[C@@H](NC(=O)[C@H](C)NC(=O)[C@H](CC(=O)O)NC(=O)[C@H](C)NC(=O)[C@H](Cc1ccc(O)cc1)NC)[C@@H](C)CC)[C@@H](C)O)[C@@H](C)CC)[C@@H](C)CC)C(=O)N[C@@H](CC(N)=O)C(=O)N[C@@H](CCCNC(=N)N)C(N)=O [[N^a MeTyr^1, Nle^27]-rhGRF(1-29)-NH2, H-N^a MeTyr-Ala-Asp-Ala-Ile-Phe-Thr-Ser-Ser-Tyr-Arg-Arg-Ile-Leu-Gly-Gln-Leu-Tyr- Ala-Arg-Lys-Leu-Leu-His-Glu-Ile-Nle-Asn-Arg-NH2] (H-[NMeY]ADAIFTSSYRRILGQLYARKLLHEI[Nle]NR-NH2)	1130	–	–	–
CC[C@H](C)[C@H](NC(=O)[C@H](C)NC(=O)[C@H](CC(=O)O)NC(=O)[C@H](C)NC(=O)[C@H](Cc1ccc(O)cc1)NC)C(=O)N[C@@H](Cc1ccccc1)C(=O)N[C@H](C(=O)N[C@@H](CC(N)=O)C(=O)N[C@@H](CO)C(=O)N[C@@H](Cc1ccc(O)cc1)C(=O)N[C@@H](CCCNC(=N)N)C(=O)N[C@@H](CCCCN)C(=O)N[C@H](C(=O)N[C@@H](CC(C)C)C(=O)NCC(=O)N[C@@H](CCC(N)=O)C(=O)N[C@@H](CC(C)C)C(=O)N[C@@H](CO)C(=O)N[C@@H](C)C(=O)N[C@@H](CCCNC(=N)N)C(=O)N[C@@H](CCCCN)C(=O)N[C@@H](CC(C)C)C(=O)N[C@@H](CC(C)C)C(=O)N[C@@H](CCC(N)=O)C(=O)N[C@@H](CC(=O)O)C(=O)N[C@H](C(=O)N[C@@H](CCSC)C(=O)N[C@@H](CO)C(=O)N[C@@H](CCCNC(=N)N)C(=O)N[C@@H](CCC(N)=O)C(=O)N[C@@H](CCC(N)=O)C(=O)NCC(N)=O)[C@@H](C)CC)C(C)C)[C@@H](C)O [[N^a MeTyr^1]hpGRF(1-32)-NH2, H-N^a MeTyr-Ala-Asp-Ala-Ile-Phe-Thr-Asn-Ser-Tyr-Arg-Lys-Val-Leu-Gly-Gln-Leu-Ser- Ala-Arg-Lys-Leu-Leu-Gln-Asp-Ile-Met-Ser-Arg-Gln-Gln-Gly-NH2]	184	–	–	–
H-C^a MePhe(4Cl)-Ala-Asp-Ala-Ile-Phe-Thr-Asn-Ser-Tyr-Arg-Lys-Val-Leu-Gly-Gln-Leu-Ser-Ala-Arg-Lys-Leu-Leu-Gln-Asp-Ile-Met-Ser-Arg-Gln-Gln-Gly-NH2 [[C^a Me/4Cl-Phe^1]-hpGRF(1-32)-NH2]	5	–	–	–
hpGRF(1-40)-OH (YADAIFTNSYRKVLGQLSARKLLQDIMSRQQGESNQERGA-OH; UniProt P01286 32-71, looked up, fragment) [synthetic human pancreas GH releasing factor fragment used as standard in the in vitro assay, reference compound]	100	–	–	–

From patent US4626523A, “GRF analogs II” (The Salk Institute for Biological Studies, priority 1985, dated 1986)
